Measured values: ChEMBL document CHEMBL1201862, “PubChem BioAssay data set” (2004)
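All cell lines were grown in 96-well plates and treated with compound for 48 hours. At the GI50, growth is halved.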 The source made the active and inactive calls. Cut-off read from the data, not from the text of the source: active = GI50 up to about 1.1 µM and inactive = higher.

Assays:
Assay in all cases: growth of human tumour cells (NCI), 48 h
A549 = test system: A549
CAKI-1 = test system: CAKI-1
CCRF-CEM = test system: CCRF-CEM
EKVX = test system: EKVX
HCT-116 = test system: HCT-116
KM12 = test system: KM12
MOLT-4 = test system: MOLT-4
NCI-H23 = test system: NCI-H23
NCI-H460 = test system: NCI-H460
OVCAR-3 = test system: OVCAR-3
OVCAR-8 = test system: OVCAR-8
SF-295 = test system: SF-295
SF-539 = test system: SF-539
SK-MEL-28 = test system: SK-MEL-28
SK-MEL-5 = test system: SK-MEL-5
SK-OV-3 = test system: SK-OV-3
SNB-75 = test system: SNB-75
SW-620 = test system: SW-620
UACC-257 = test system: UACC-257
UO-31 = test system: UO-31

Row | SMILES | GI50 (A549) | GI50 (CAKI-1) | GI50 (CCRF-CEM) | GI50 (EKVX) | GI50 (HCT-116) | GI50 (KM12) | GI50 (MOLT-4) | GI50 (NCI-H23) | GI50 (NCI-H460) | GI50 (OVCAR-3) | GI50 (OVCAR-8) | GI50 (SF-295) | GI50 (SF-539) | GI50 (SK-MEL-28) | GI50 (SK-MEL-5) | GI50 (SK-OV-3) | GI50 (SNB-75) | GI50 (SW-620) | GI50 (UACC-257) | GI50 (UO-31)
1 | CCC(=O)NC(Nc1cccc(F)c1)(C(F)(F)F)C(F)(F)F | > 100 µM (inactive) | 10.7 µM (inactive) | 60 µM (inactive) | 67.3 µM (inactive) | > 100 µM (inactive) | > 100 µM (inactive) | 57 µM (inactive) | > 100 µM (inactive) | > 100 µM (inactive) | > 100 µM (inactive) | > 100 µM (inactive) | > 100 µM (inactive) | > 100 µM (inactive) | > 100 µM (inactive) | 78.7 µM (inactive) | > 100 µM (inactive) | > 100 µM (inactive) | > 100 µM (inactive) | > 100 µM (inactive) | 70.1 µM (inactive)
2 | COc1ccccc1C(=O)c1c(NCc2ccccc2)c(=O)c1=O | 0.424 µM (active) | 35.2 µM (inactive) | 26.1 µM (inactive) | > 100 µM (inactive) | > 100 µM (inactive) | > 100 µM (inactive) | 23.4 µM (inactive) | > 100 µM (inactive) | > 100 µM (inactive) | > 100 µM (inactive) | > 100 µM (inactive) | > 100 µM (inactive) | 0.0841 µM (active) | 18.1 µM (inactive) | > 100 µM (inactive) | > 100 µM (inactive) | > 100 µM (inactive) | 18.2 µM (inactive) | > 100 µM (inactive) | > 100 µM (inactive)
3 | Nc1ccccc1C(=O)N/N=C1\C(=O)Nc2ccccc21 | > 100 µM (inactive) | > 100 µM (inactive) | > 100 µM (inactive) | > 100 µM (inactive) | > 100 µM (inactive) | 88.5 µM (inactive) | > 100 µM (inactive) | 56.2 µM (inactive) | > 100 µM (inactive) | > 100 µM (inactive) | > 100 µM (inactive) | > 100 µM (inactive) | > 100 µM (inactive) |  | > 100 µM (inactive) | > 100 µM (inactive) | 23.9 µM (inactive) |  | > 100 µM (inactive) | > 100 µM (inactive)
4 | Cc1ccc(OCC2OC(n3cnc4c(Cl)nc(N)nc43)CC2Oc2ccc(C)cc2)cc1 (stereo not drawn) | 6.73 µM (inactive) | 1.76 µM (inactive) | > 74.6 µM (inactive) | 9.2 µM (inactive) | 47.5 µM (inactive) | > 51.8 µM (inactive) | 25.2 µM (inactive) | 19.2 µM (inactive) | 40.6 µM (inactive) | 21.6 µM (inactive) | 31.9 µM (inactive) | 15.2 µM (inactive) | > 55.7 µM (inactive) | > 51.4 µM (inactive) | 30.9 µM (inactive) | > 69 µM (inactive) | > 70.8 µM (inactive) | > 55.3 µM (inactive) | 63.7 µM (inactive) | 4.58 µM (inactive)
5 | COC(=O)C(F)C(Br)C(=O)OC (stereo not drawn) | 19.7 µM (inactive) | 2.35 µM (inactive) | 0.684 µM (active) | 2.19 µM (inactive) | 2.74 µM (inactive) | 20.3 µM (inactive) | 0.9 µM (active) | 6.03 µM (inactive) | 18.9 µM (inactive) | 2.11 µM (inactive) | 3.63 µM (inactive) | 26.4 µM (inactive) | 5.48 µM (inactive) | 18 µM (inactive) | 18.5 µM (inactive) | 18.5 µM (inactive) | 12.3 µM (inactive) | 1.95 µM (inactive) | 14.6 µM (inactive) | 1.89 µM (inactive)
6 | COc1cc2cc(C(=O)N3CC(CCl)c4ccc(NO)cc43)[nH]c2c(OC)c1OC (stereo not drawn) | 0.0897 µM (active) | 0.227 µM (active) | 0.137 µM (active) | 0.35 µM (active) | 0.253 µM (active) | 0.155 µM (active) | 0.184 µM (active) | 0.0693 µM (active) | 0.0446 µM (active) | 0.257 µM (active) | 0.184 µM (active) | 0.0836 µM (active) | 0.353 µM (active) | 0.245 µM (active) | 0.0984 µM (active) | 0.284 µM (active) | 0.177 µM (active) | 0.166 µM (active) | 0.201 µM (active) | 0.0325 µM (active)
7 | Nc1ccn(C2OC(CO[PH](=O)OC3C(CO[PH](=O)OC4C(CO[PH](=O)OC5C(CO[PH](=O)OC6C(CO[PH](=O)OC7C(CO[PH](=O)OC8C(CO[PH](=O)OC9C(CO[PH](=O)OC%10C(CO[PH](=O)OC%11C(CO)OC(n%12ccc(N)nc%12=O)C%11(F)F)OC(n%11ccc(N)nc%11=O)C%10(F)F)OC(n%10ccc(N)nc%10=O)C9(F)F)OC(n9ccc(N)nc9=O)C8(F)F)OC(n8ccc(N)nc8=O)C7(F)F)OC(n7ccc(N)nc7=O)C6(F)F)OC(n6ccc(N)nc6=O)C5(F)F)OC(n5ccc(N)nc5=O)C4(F)F)OC(n4ccc(N)nc4=O)C3(F)F)C(O)C2(F)F)c(=O)n1 (stereo not drawn) | 0.016 µM (active) | 0.0316 µM (active) | 0.0172 µM (active) | 5.46 µM (inactive) | 0.0134 µM (active) | 5.38 µM (inactive) | 0.0333 µM (active) | 0.0423 µM (active) | 0.0208 µM (active) | 17.1 µM (inactive) | 0.0156 µM (active) | 0.0697 µM (active) | 0.0112 µM (active) | 0.594 µM (active) | 1.73 µM (inactive) | 0.979 µM (active) | 0.0254 µM (active) | 0.577 µM (active) | 0.34 µM (active) | 0.0213 µM (active)
8 | Cc1ccc(C2CC(c3cccc([N+](=O)[O-])c3)=Nc3ccccc3S2)cc1 (stereo not drawn) | 48.8 µM (inactive) | 24.3 µM (inactive) | 23.2 µM (inactive) | > 88.1 µM (inactive) | 13.3 µM (inactive) | 18 µM (inactive) | 25.5 µM (inactive) | 22.9 µM (inactive) | 68.5 µM (inactive) | 28.5 µM (inactive) | 24.2 µM (inactive) | 50.7 µM (inactive) | 51.5 µM (inactive) | 62.4 µM (inactive) | 25.4 µM (inactive) | > 100 µM (inactive) | 21 µM (inactive) | 16.1 µM (inactive) | 34.6 µM (inactive) | 20.8 µM (inactive)
9 | O=C1CSC(/C=C/c2ccccc2)N1c1nc2cc3sc(N4C(=O)CSC4/C=C/c4ccccc4)nc3cc2s1 (stereo not drawn) | 9.82 µM (inactive) | 53 µM (inactive) | 3.53 µM (inactive) | 13.2 µM (inactive) | 27.7 µM (inactive) | 48.9 µM (inactive) | 5.9 µM (inactive) | > 48.3 µM (inactive) | 3.33 µM (inactive) | 38.8 µM (inactive) | > 100 µM (inactive) | > 100 µM (inactive) | 2.83 µM (inactive) | > 58.7 µM (inactive) | > 46.5 µM (inactive) | > 100 µM (inactive) | 73.8 µM (inactive) | 9.46 µM (inactive) | > 86.5 µM (inactive) | > 51.5 µM (inactive)
10 | O=C(OCCOC(=O)c1ccc2c(c1)C1(SCCS1)c1ccccc1-2)c1ccc2c(c1)C1(SCCS1)c1ccccc1-2 | > 100 µM (inactive) | > 100 µM (inactive) | > 100 µM (inactive) | > 100 µM (inactive) | > 100 µM (inactive) | > 100 µM (inactive) | > 100 µM (inactive) | > 100 µM (inactive) | > 100 µM (inactive) | > 100 µM (inactive) | > 100 µM (inactive) | > 100 µM (inactive) | > 100 µM (inactive) | > 100 µM (inactive) | > 100 µM (inactive) | > 100 µM (inactive) | > 100 µM (inactive) | > 100 µM (inactive) | > 100 µM (inactive) | > 100 µM (inactive)
11 | O=C1NC(O)CCN1C1OC(CO)C(O)C1O (stereo not drawn) | > 250 µM (inactive) | > 250 µM (inactive) | > 250 µM (inactive) | > 250 µM (inactive) | > 141 µM (inactive) | > 250 µM (inactive) | > 250 µM (inactive) | > 250 µM (inactive) | > 250 µM (inactive) | > 250 µM (inactive) | > 250 µM (inactive) | > 250 µM (inactive) | > 250 µM (inactive) | > 250 µM (inactive) | > 66.4 µM (inactive) | > 250 µM (inactive) | > 250 µM (inactive) | > 250 µM (inactive) | > 250 µM (inactive) | > 250 µM (inactive)
12 | CC/C=C\C/C=C\C/C=C\CCCCCCCC(=O)OC [METHYL LINOLENATE] | > 100 µM (inactive) | > 100 µM (inactive) | 45.8 µM (inactive) | > 100 µM (inactive) | 91.6 µM (inactive) | > 100 µM (inactive) | 87.5 µM (inactive) | > 100 µM (inactive) | > 100 µM (inactive) | > 100 µM (inactive) | > 100 µM (inactive) | > 100 µM (inactive) | > 100 µM (inactive) | > 100 µM (inactive) | > 100 µM (inactive) | > 100 µM (inactive) | 67.6 µM (inactive) | > 100 µM (inactive) | > 100 µM (inactive) | > 100 µM (inactive)
